In patent US5112846A, “N-hydroxyamide, N-hydroxythioamide, hydroxyurea, and N-hydroxythiourea derivatives of selected nsaids as antiinflammatory agents” (Warner-Lambert Company, priority 1990, dated 1992):
Where two headings read alike, the source gives them in different places.

Assays:
5-Lipoxygenase = target: T1, 5-Lipoxygenase (Rattus norvegicus, UniProt P12527); assay: ARBL whole cell 5-lipoxygenase assay (LTB4 formation in RBL-1 cells, A23187 stimulated); format: cell-based; settings: for IC50: read-out: ARBL IC50 (inhibition of LTB4 formation)
T1 construct: host or cells: RBL-1 rat basophilic leukemia cells
T1 sequence (P12527 1-673): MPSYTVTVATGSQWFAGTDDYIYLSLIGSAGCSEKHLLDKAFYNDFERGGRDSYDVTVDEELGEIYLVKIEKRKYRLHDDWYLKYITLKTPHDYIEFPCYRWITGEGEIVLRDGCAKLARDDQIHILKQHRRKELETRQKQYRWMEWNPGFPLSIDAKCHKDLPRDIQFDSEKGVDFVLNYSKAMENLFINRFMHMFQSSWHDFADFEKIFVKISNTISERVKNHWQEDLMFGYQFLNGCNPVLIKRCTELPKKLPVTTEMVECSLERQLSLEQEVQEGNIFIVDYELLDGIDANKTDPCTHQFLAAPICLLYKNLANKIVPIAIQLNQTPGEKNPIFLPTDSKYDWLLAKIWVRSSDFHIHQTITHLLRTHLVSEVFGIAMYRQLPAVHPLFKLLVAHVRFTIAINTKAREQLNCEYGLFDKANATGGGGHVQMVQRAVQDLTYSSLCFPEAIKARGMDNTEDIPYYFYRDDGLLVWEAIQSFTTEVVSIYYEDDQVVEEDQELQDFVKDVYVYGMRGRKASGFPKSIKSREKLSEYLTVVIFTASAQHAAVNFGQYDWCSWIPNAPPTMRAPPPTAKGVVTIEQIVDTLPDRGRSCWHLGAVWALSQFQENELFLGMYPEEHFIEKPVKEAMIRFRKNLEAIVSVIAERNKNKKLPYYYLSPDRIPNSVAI
Experimental: (§1) ARBL/ARBC Whole Cell 5-Lipoxygenase and Cyclooxygenase Assays
(§2) The rat basophilic leukemia cell line (RBL-1) was obtained from the American Type Culture Collection (Rockville, MD).
(§3) Radioimmunoassay (RIA) kits of LTB4 and PGF2α were obtained from Amersham (Arlington Heights, IL) and Seragen (Boston, MA), respectively.
(§4) RBL-1 cells are grown in suspension culture in Eagle's minimum essential medium supplemented with 12% fetal bovine serum at 37° C. in an incubator supplied with air-5% carbon dioxide. Cells are harvested by centrifugation. They are washed with cold phosphate buffered saline pH 7.4 (PBS; NaCl, 7.1 g; Na2 HPO4, 1.15 g; KH2 PO4, 0.2 g; and KCl, 0.2 g/l). Cells are finally suspended in PBS containing 1.0 mM calcium at a density of 2×10^6 cells/ml. Cells are incubated with and without test agent (in DMSO) (1% DMSO is without effect on arachidonic acid metabolism) for ten minutes at room temperature. Calcium ionophore A23187 (5 μM) is added and cells are incubated for seven minutes at 37° C. The reaction is stopped by chilling the tubes on ice for ten minutes. Cells are separated by centrifugation and the supernatant is stored at -20° C. Aliquots (100 μl) are analyzed for LTB4 and PGF2α using radioimmunoassay kits as provided by the supplier.
(§5) Tables 1-4 contain biochemical data obtained from this whole cell assay either as IC50 s which are calculated as the amount of test compound causing 50% inhibition of LTB4 or PGF2α formation or % inhibition of LTB4 or PGF2α at the indicated amount expressed as μM.

Cyclooxygenase = target: T2, Cyclooxygenase (Rattus norvegicus, UniProt Q63921); assay: ARBC whole cell cyclooxygenase assay (PGF2α formation in RBL-1 cells, A23187 stimulated); format: cell-based; settings: for IC50: read-out: ARBC IC50 (inhibition of PGF2α formation)
T2 construct: host or cells: RBL-1 rat basophilic leukemia cells
T2 sequence (Q63921 27-602): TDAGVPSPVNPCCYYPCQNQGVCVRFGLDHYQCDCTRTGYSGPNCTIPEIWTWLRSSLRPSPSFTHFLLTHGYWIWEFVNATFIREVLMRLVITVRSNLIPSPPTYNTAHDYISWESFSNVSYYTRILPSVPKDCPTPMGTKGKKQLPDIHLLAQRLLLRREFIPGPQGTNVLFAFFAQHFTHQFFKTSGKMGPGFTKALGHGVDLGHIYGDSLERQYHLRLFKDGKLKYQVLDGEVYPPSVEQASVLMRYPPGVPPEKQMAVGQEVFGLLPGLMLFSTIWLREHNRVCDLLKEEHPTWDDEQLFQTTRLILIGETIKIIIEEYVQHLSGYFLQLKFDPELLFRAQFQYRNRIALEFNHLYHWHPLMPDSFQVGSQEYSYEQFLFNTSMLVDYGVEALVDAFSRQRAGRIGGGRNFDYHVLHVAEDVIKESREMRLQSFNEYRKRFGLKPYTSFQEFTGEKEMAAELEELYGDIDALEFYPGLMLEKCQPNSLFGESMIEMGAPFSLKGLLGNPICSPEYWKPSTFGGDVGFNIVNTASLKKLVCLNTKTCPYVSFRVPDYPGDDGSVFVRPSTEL
Experimental: as §1, §2, §3, §4, §5

[1] = RBL-1 cells, read-out: ARBL % inhibition of LTB4
[2] = RBL-1, Table 1, read-out: ARBC % inhibition (N)

SMILES	IC50 (5-Lipoxygenase; RBL-1 cells)	IC50 (Cyclooxygenase; RBL-1 cells)	further results
CCOC(=O)N(O)Cc1ccccc1Nc1cccc(C(F)(F)F)c1 [Example 57, N-Hydroxy-N-[[2-[[3-(trifluoromethyl)phenyl]amino]phenyl]methyl]carbamic acid, ethyl ester]	–	–	inhibition at 16 µM (5-Lipoxygenase; [1]): 100%; inhibition at 16 µM (Cyclooxygenase; RBL-1 cells, read-out: ARBC % inhibition of PGF2α): 91%
O=C(O)C(=O)N(O)Cc1ccc2c(c1)Cc1ccccc1-2 [Example 3, (9H-Fluoren-2-ylmethyl)hydroxyamino-oxo-acetic acid]	–	–	inhibition at 16 µM (5-Lipoxygenase; RBL-1, Table 1, read-out: ARBL % inhibition (N)): < 40%; inhibition at 16 µM (Cyclooxygenase; [2]): < 40%
CNC(=O)N(O)Cc1ccc2c(c1)Cc1ccccc1-2 [Example 6, N-(9H-Fluoren-2-ylmethyl)-N-hydroxy-N'-methylurea]	–	–	inhibition at 16 µM (5-Lipoxygenase; [1]): 100%; inhibition at 16 µM (Cyclooxygenase; [2]): < 40%
CC(=O)N(O)Cc1ccccc1Nc1c(Cl)cccc1Cl [Example 48, N-[[(2,6-Dichlorophenyl)amino]phenyl]methyl-N-hydroxyacetamide]	1.3 µM	–	inhibition at 32 µM (Cyclooxygenase; RBL-1, at 32 μM, Table 3, read-out: ARBC % inhibition (N @ 32)): < 40%
CC(=O)N(O)Cc1ccccc1Nc1cccc(C)c1C [Example 47]	0.51 µM	15 µM	–
CC(=O)N(O)Cc1ccc2c(c1)OCc1ccccc1C2=O [Example 18, N-[(6,11-Dihydro-11-oxodibenz[b,el]oxepin-3-yl)methyl]-N-hydroxyacetamide]	0.84 µM	–	inhibition at 16 µM (Cyclooxygenase; RBL-1, Table 2, read-out: ARBC % inhibition (N)): < 40%

Now from value to molecule, other results behind:

IC50 (5-Lipoxygenase; RBL-1 cells)	IC50 (Cyclooxygenase; RBL-1 cells)	SMILES	further results
0.18 µM	5 µM	CC(=O)N(O)Cc1ccccc1Nc1c(Cl)ccc(C)c1Cl [Example 54, N-[[2-[(2,6-Dichloro-3-methylphenyl)amino]phenyl]methyl]-N-hydroxyacetamide]	–
1.1 µM	14 µM	CCOC(=O)CC(=O)N(O)Cc1c(C)n(C(=O)c2ccc(Cl)cc2)c2ccc(OC)cc12 [Example 64, 3-[[[1-(4-Chlorobenzoyl)-5-methoxy-2-methyl-1H-indol-3-yl]methyl]hydroxyamino]-3-oxo-propanoic acid, ethyl ester]	–
0.12 µM	2.2 µM	CNC(=O)N(O)Cc1ccccc1Nc1cccc(C(F)(F)F)c1 [Example 56]	–
0.4 µM	7.1 µM	CNC(=S)N(O)Cc1c(C)n(C(=O)c2ccc(Cl)cc2)c2ccc(OC)cc12 [Example 74, 1-(4-Chlorobenzoyl)-N-hydroxy-5-methoxy-2-methyl-N-[(methylamino)thioxomethyl]-1H-indole-3-methanamine]	–
